Laboratory results: ChEMBL document CHEMBL1159344, “Natural anti-HIV agents. Part IV. Anti-HIV constituents from Vatica cinerea” (J Nat Prod, 2003)

Legend:
[1] = Selectivity index, ratio of CC50 for HOG.R5 cells to IC50 for HIV1 3B; format: functional
[2] = tested on: Human immunodeficiency virus 1; assay: Antiviral activity against HIV1 3B infected in human HOG.R5 assessed as inhibition of viral replication by microtiter assay; format: functional, organism-based; details: Human immunodeficiency virus 1, 3B
[3] = Cytotoxicity against human HOG.R5 cells; format: cell-based
[4] = Cytotoxicity against human HOG.R5 cells at 20 ug/ml; format: cell-based
[5] = tested on: Human immunodeficiency virus 1; assay: Antiviral activity against HIV1 3B infected in human HOG.R5 assessed as inhibition of viral replication at 2.5 ug/ml by microtiter assay; format: functional; details: Human immunodeficiency virus 1, 3B
[6] = tested on: Human immunodeficiency virus 1; assay: Antiviral activity against HIV1 3B infected in human HOG.R5 assessed as inhibition of viral replication at 20 ug/ml by microtiter assay; format: functional; details: Human immunodeficiency virus 1, 3B

Row | SMILES | Ratio CC50/IC50 [1] | IC50 [2] [µM] | CC50 [3] [µM] | Activity [4] | inhibition at 2.5 µg/mL [5] [%] | inhibition at 20 µg/mL [6] [%]
1 | C=C(C/C=C/C(C)(C)O)[C@H]1CC[C@]2(C)[C@@H]1CC[C@@H]1[C@@]3(C)CC[C@H](O)C(C)(C)[C@@H]3CC[C@]12C | 1.3 | 22.6 | 30.3 | – | – | –
2 | C/C(=C\CC[C@@H](C)[C@H]1CC[C@@]2(C)C3=C(CC[C@]12C)[C@@]1(C)CCC(=O)C(C)(C)[C@@H]1CC3)C(=O)O | 1.7 | 8.6 | 14.8 | – | – | –
3 | C=C(CC[C@H](O)C(=C)C)[C@H]1CC[C@]2(C)[C@@H]1CC[C@@H]1[C@@]3(C)CC[C@H](O)C(C)(C)[C@@H]3CC[C@]12C | 2.3 | 6.1 | 14.3 | – | – | –
4 | CC1=C2[C@@H]3[C@H](CC[C@H](C)[C@]2(O)CC1=O)C3(C)C | >1 | 88 | 85.5 | Non-toxic | – | –
5 | CC(=O)/C=C/C[C@@H](C)[C@H]1CC[C@@]2(C)[C@@H]3CC[C@H]4C(C)(C)[C@@H](O)CC[C@@]45C[C@@]35CC[C@]12C | – | 5.9 | 12.7 | – | 21 | –
6 | C=C(C)[C@@H]1CC[C@]2(C(=O)O)CC[C@]3(C)[C@H](CC[C@@H]4[C@@]5(C)CC[C@H](O)C(C)(C)[C@@H]5CC[C@]43C)[C@@H]12 [BETULINIC ACID] | 1.1 | 32.5 | 36 | – | – | –
7 | C=C(C)[C@@H]1CC[C@]2(CO)CC[C@]3(C)[C@H](CC[C@@H]4[C@@]5(C)CC[C@H](O)C(C)(C)[C@@H]5CC[C@]43C)[C@@H]12 [BETULIN] | 1.4 | 13.8 | 19.5 | – | – | –
8 | C=C(C)[C@@H]1CC[C@]2(C(=O)O)CC[C@]3(C)[C@H](CC[C@@H]4[C@@]5(C)CCC(=O)C(C)(C)[C@@H]5CC[C@]43C)[C@@H]12 [BETUNOLIC ACID] | – | 21.4 | 105 | – | – | –
9 | CC(CCC[C@@H](C)[C@H]1CC[C@@]2(C)[C@@H]3CC[C@H]4C(C)(C)C(=O)CC[C@@]45C[C@@]35CC[C@]12C)C(=O)O (stereo partly specified) [DIHYDROSCHIZANDRONIC ACID] | – | 43.9 | 43.9 | Non-toxic | – | 0
10 | CC1(C)CC[C@]2(CO)CC[C@]3(C)C(=CC[C@@H]4[C@@]5(C)CC[C@H](O)C(C)(C)[C@@H]5CC[C@]43C)[C@@H]2C1 [ERYTHRODIOL] | >1 | 45.2 | 45.2 | Non-toxic | – | 33
11 | C/C(=C\CC[C@@H](C)[C@H]1CC[C@@]2(C)[C@@H]3CC[C@H]4C(C)(C)C(=O)CC[C@@]45C[C@@]35CC[C@]12C)C(=O)O [MANGIFERONIC ACID] | – | 44.1 | 44.1 | Non-toxic | – | 19
12 | C=Cc1c(C)c2cc3nc(c4c5[nH]c(cc6nc(cc1[nH]2)C(C)=C6CC)c(C)c5C(=O)[C@@H]4C(=O)OC)[C@@H](CCC(=O)O)[C@@H]3C [PHEOPHORBIDE A] | >13 | 2.5 | 33.8 | – | – | –
13 | C[C@H]1[C@H](C)CC[C@]2(C(=O)O)CC[C@]3(C)C(=CC[C@@H]4[C@@]5(C)CC[C@H](O)C(C)(C)[C@@H]5CC[C@]43C)[C@H]12 [URSOLIC ACID] | 4.9 | 14.7 | 15.8 | – | – | –
14 | CC(=O)/C=C/C[C@@H](C)[C@H]1CC[C@@]2(C)[C@@H]3CC[C@H]4C(C)(C)C(=O)CC[C@@]45C[C@@]35CC[C@]12C [VATICINONE] | 1.4 | 15.3 | 21.5 | – | – | –
